For one experiment, the system named is C. neoformans. Kind of experiment: microbe, parasite or virus in culture. The experiment is classed as cell-based, Cryptococcus neoformans. The settings on record: Cryptococcus neoformans, C. neoformans. The essentials:
(§1)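 Peptides (DMSO stock) two-fold diluted in broth; fungi 10^3 CFU/mL, RPMI 1640/YPED, 30 °C, 48 h; bacteria 10^5 CFU/mL, Mueller Hinton, 37 °C, 24 h; OD600 → IC50, MIC. Strains: MTCC 3160, MTCC 439, MTCC 3019, NCCPF250316.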

The next experiment deals with C. albicans. Kind of experiment: microbe, parasite or virus in culture. The experiment is classed as cell-based, Candida albicans. The following applies: Candida albicans, C. albicans. A digest of the protocol:
(§2)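 Growth inhibition was measured by broth microdilution. MIC and IC50 were calculated from optical density at 600 nm after 48 h at 30 °C for Candida and Cryptococcus (10^3 CFU/mL, RPMI 1640 or YPED) and after 24 h at 37 °C for the Gram-positive bacteria (10^5 CFU/mL, Mueller Hinton).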

The test system of a further experiment is C. glabrata. Kind of experiment: microbe, parasite or virus in culture. The experiment is classed as cell-based, Candida glabrata. The following applies: Nakaseomyces glabratus, C. glabrata. A digest of the protocol: as §1
A further experiment deals with C. parapsilosis. Kind of experiment: microbe, parasite or virus in culture. The settings on record: Lodderomyces parapsilosis, C. parapsilosis. The experiment is classed as cell-based, Candida parapsilosis. A digest of the protocol:
as §2

The next experiment has as its system C. krusei. Briefly: microbe, parasite or virus in culture. The experiment is classed as cell-based, Candida krusei. The settings on record: Pichia kudriavzevii, C. krusei. The essentials: as §2
Experiment [1] deals with Cryptococcal cells.
The test system of a further experiment is C. neoformans cells. Kind of experiment: Time kill assay. The following applies: time-kill profile over 24 h.
Experiment [2] relates to Cryptococcal cells. Kind of experiment: microbe, parasite or virus in culture. The following applies: Cryptococcus neoformans, read-out: MIC Alone.

Converted amounts (≈) assume the structure as drawn. Where two headings read alike, the source gives them in different places.

As a reminder, the IC50 is the concentration at which inhibition is half-maximal. In the case of `C[C@@H]1[C@H](O)[C@@H](C)/C=C/C=C/C=C/C=C/C=C/C=C/C=C/[C@H](O[C@@H]2O[C@H](C)[C@@H](O)[C@H](N)[C@@H]2O)C[C@@H]2O[C@](O)(C[C@@H](O)C[C@@H](O)[C@H](O)CC[C@@H](O)C[C@@H](O)CC(=O)O[C@H]1C)C[C@H](O)[C@H]2C(=O)O` [Amphotericin B, reference compound], the IC50 in the experiment with C. neoformans (concentration that leads to ~50% inhibition of growth, read-out: IC50) worked out at 0.5 µg/mL (≈ 0.541 µM); in the experiment with C. albicans (read-out: IC50), 0.36 µg/mL (≈ 0.39 µM); in the experiment on C. glabrata (read-out: IC50), 0.18 µg/mL (≈ 0.195 µM); in the experiment on C. parapsilosis (read-out: IC50) it was 0.36 µg/mL (≈ 0.39 µM); in the experiment on C. krusei (read-out: IC50), 0.36 µg/mL (≈ 0.39 µM). In addition, the MIC in the experiment with C. neoformans (lowest test concentration with no detectable growth, read-out: MIC) turned out to be 1 µg/mL (≈ 1.08 µM); in the experiment with C. albicans (read-out: MIC) it was 0.72 µg/mL (≈ 0.779 µM); in the experiment on C. glabrata (read-out: MIC) it was 0.36 µg/mL (≈ 0.39 µM); in the experiment with C. parapsilosis (read-out: MIC) it was 0.72 µg/mL (≈ 0.779 µM); with C. krusei (read-out: MIC) it was 0.72 µg/mL (≈ 0.779 µM); in the experiment with Cryptococcal cells [2] it was 1 µg/mL (≈ 1.08 µM). In addition, the Effect result in the experiment on Cryptococcal cells [1] (combination 10o + Amp B) and with Cryptococcal cells [1] (combination 10d + Amp B) was “Synergistic” in each case. Besides, the FICI is recorded as 0.31 in the experiment with Cryptococcal cells [1] (combination 10o + Amp B) and 0.18 in the experiment with Cryptococcal cells [1] (combination 10d + Amp B). For the same molecule, the “Fold Decrease in MIC” value in the experiment with Cryptococcal cells [1] (combination 10o + Amp B) is on record as 4; with Cryptococcal cells [1] (combination 10d + Amp B), 8. For the same molecule, the “MIC In Combination” value turned out to be 0.250 µg/mL in the experiment on Cryptococcal cells [1] (combination 10o + Amp B) and 0.125 µg/mL in the experiment with Cryptococcal cells [1] (combination 10d + Amp B). Also, the “Time after which growth/CFUs of cryptococcal cells dropped or were inhibited” value in the experiment with C. neoformans cells is 4 h.

Source of the values: paper PMC9821961, “Ring-Modified Histidine-Containing Cationic Short Peptides Exhibit Anticryptococcal Activity by Cellular Disruption” (Molecules, 2022).
